Experimental data: patent publication US4105651A (The United States of America as represented by the …, priority 1976, dated 1978)
Read-outs that look alike come from different tables or passages of the source.

System: opiate receptor sites
Source text: The tests which were made in the laboratory were of the myenteric plexus-longitudinal muscle of the guinea pig ileum and the vas deferens of the mouse. In the whole animal the rates of onset and recovery are directly related to lipid solubility which facilitates drug movement to and from the brain.

Compound | agonist activity: inhibition of electrically evoked contractions (guinea pig ileum) | agonist activity: inhibition of electrically evoked contractions (mouse vas deferens)
CC(C)C[C@H](NC(=O)[C@H](Cc1ccccc1)NC(=O)CNC(=O)CNC(=O)[C@@H](N)Cc1ccc(O)cc1)C(=O)O [leucine-enkephalin, H-Tyr-Gly-Gly-Phe-Leu-OH] | dose-related inhibition | dose-related inhibition
CSCC[C@H](NC(=O)[C@H](Cc1ccccc1)NC(=O)CNC(=O)CNC(=O)[C@@H](N)Cc1ccc(O)cc1)C(=O)O [methionine-enkephalin, H-Tyr-Gly-Gly-Phe-Met-OH] | dose-related inhibition | dose-related inhibition
